Data reported in ChEMBL document CHEMBL3045110, “Synthesis and antibacterial evaluation of 6-azapyrimidines with -methylene--(4-substituted phenyl)--butyrolactone pharmacophores” (2011).
In brackets after ≈: the same amount, converted by molar mass.

Experiments:
Assay type in all cases: functional
[1] = system: Staphylococcus aureus; experiment: Antibacterial activity against Staphylococcus aureus ATCC 25923 after 20 to 22 hr by agar dilution method
[2] = system: Staphylococcus epidermidis; experiment: Antibacterial activity against Staphylococcus epidermidis ATCC 12228 after 20 to 22 hr by agar dilution method
[3] = system: Bordetella bronchiseptica; experiment: Antibacterial activity against Bordetella bronchiseptica ATCC 4617 after 20 to 22 hr by agar dilution method
[4] = system: Proteus vulgaris; experiment: Antibacterial activity against Proteus vulgaris ATCC 13315 after 20 to 22 hr by agar dilution method
[5] = system: Micrococcus; experiment: Antibacterial activity against Micrococcus […] ATCC 9341 after 20 to 22 hr by agar dilution method
[6] = system: Bacillus cereus; experiment: Antibacterial activity against Bacillus cereus ATCC 11778 after 20 to 22 hr by agar dilution method
[7] = system: Bacillus subtilis; experiment: Antibacterial activity against Bacillus subtilis ATCC 6633 after 20 to 22 hr by agar dilution method

## C=C1CC(Cn2ncc(=O)[nH]c2=O)(c2ccccc2)OC1=O (stereo unspecified)
[1]
  MIC: > 100 µg/mL
[2]
  MIC: > 100 µg/mL
[3]
  MIC: > 100 µg/mL
[4]
  MIC: 5 µg/mL (≈ 16.7 µM)
[5]
  MIC: > 100 µg/mL
[6]
  MIC: > 100 µg/mL
[7]
  MIC: > 100 µg/mL

## C=C1CC(Cn2ncc(=O)[nH]c2=O)(c2ccc(F)cc2)OC1=O (stereo unspecified)
[1]
  MIC: > 100 µg/mL
[2]
  MIC: > 100 µg/mL
[3]
  MIC: > 100 µg/mL
[4]
  MIC: 50 µg/mL (≈ 158 µM)
[5]
  MIC: > 100 µg/mL
[6]
  MIC: 50 µg/mL (≈ 158 µM)
[7]
  MIC: > 100 µg/mL

## C=C1CC(Cn2ncc(=O)[nH]c2=O)(c2ccc(-c3ccccc3)cc2)OC1=O (stereo unspecified)
[1]
  MIC: > 100 µg/mL
[2]
  MIC: > 100 µg/mL
[3]
  MIC: > 100 µg/mL
[4]
  MIC: 25 µg/mL (≈ 66.6 µM)
[5]
  MIC: > 100 µg/mL
[6]
  MIC: 50 µg/mL (≈ 133 µM)
[7]
  MIC: > 100 µg/mL

## C=C1CC(Cn2nc(C)c(=O)[nH]c2=O)(c2ccccc2)OC1=O (stereo unspecified)
[1]
  MIC: > 100 µg/mL
[2]
  MIC: > 100 µg/mL
[3]
  MIC: > 100 µg/mL
[4]
  MIC: > 100 µg/mL
[5]
  MIC: > 100 µg/mL
[6]
  MIC: > 100 µg/mL
[7]
  MIC: > 100 µg/mL

## C=C1CC(Cn2nc(C)c(=O)[nH]c2=O)(c2ccc(F)cc2)OC1=O (stereo unspecified)
[1]
  MIC: > 100 µg/mL
[2]
  MIC: > 100 µg/mL
[3]
  MIC: > 100 µg/mL
[4]
  MIC: > 100 µg/mL
[5]
  MIC: > 100 µg/mL
[6]
  MIC: 50 µg/mL (≈ 151 µM)
[7]
  MIC: > 100 µg/mL

## C=C1CC(Cn2nc(C)c(=O)[nH]c2=O)(c2ccc(-c3ccccc3)cc2)OC1=O (stereo unspecified)
[1]
  MIC: > 100 µg/mL
[2]
  MIC: 25 µg/mL (≈ 64.2 µM)
[3]
  MIC: 50 µg/mL (≈ 128 µM)
[4]
  MIC: > 100 µg/mL
[5]
  MIC: > 100 µg/mL
[6]
  MIC: > 100 µg/mL
[7]
  MIC: 25 µg/mL (≈ 64.2 µM)

## C=C1CC(Cn2ncc(=O)n(CC3(c4ccccc4)CC(=C)C(=O)O3)c2=O)(c2ccccc2)OC1=O (stereo unspecified)
[1]
  MIC: > 100 µg/mL
[2]
  MIC: > 100 µg/mL
[3]
  MIC: > 100 µg/mL
[4]
  MIC: > 100 µg/mL
[5]
  MIC: > 100 µg/mL
[6]
  MIC: > 100 µg/mL
[7]
  MIC: > 100 µg/mL

## C=C1CC(Cn2ncc(=O)n(CC3(c4ccc(F)cc4)CC(=C)C(=O)O3)c2=O)(c2ccc(F)cc2)OC1=O (stereo unspecified)
[1]
  MIC: > 100 µg/mL
[2]
  MIC: > 100 µg/mL
[3]
  MIC: > 100 µg/mL
[4]
  MIC: > 100 µg/mL
[5]
  MIC: > 100 µg/mL
[6]
  MIC: 10 µg/mL (≈ 19.2 µM)
[7]
  MIC: > 100 µg/mL

## C=C1CC(Cn2ncc(=O)n(CC3(c4ccc(-c5ccccc5)cc4)CC(=C)C(=O)O3)c2=O)(c2ccc(-c3ccccc3)cc2)OC1=O (stereo unspecified)
[1]
  MIC: 50 µg/mL (≈ 78.4 µM)
[2]
  MIC: 10 µg/mL (≈ 15.7 µM)
[3]
  MIC: 25 µg/mL (≈ 39.2 µM)
[4]
  MIC: 25 µg/mL (≈ 39.2 µM)
[5]
  MIC: 50 µg/mL (≈ 78.4 µM)
[6]
  MIC: 25 µg/mL (≈ 39.2 µM)
[7]
  MIC: 10 µg/mL (≈ 15.7 µM)

## C=C1CC(Cn2nc(C)c(=O)n(CC3(c4ccccc4)CC(=C)C(=O)O3)c2=O)(c2ccccc2)OC1=O (stereo unspecified)
[1]
  MIC: > 100 µg/mL
[2]
  MIC: > 100 µg/mL
[3]
  MIC: > 100 µg/mL
[4]
  MIC: > 100 µg/mL
[5]
  MIC: > 100 µg/mL
[6]
  MIC: > 100 µg/mL
[7]
  MIC: > 100 µg/mL

## C=C1CC(Cn2nc(C)c(=O)n(CC3(c4ccc(F)cc4)CC(=C)C(=O)O3)c2=O)(c2ccc(F)cc2)OC1=O (stereo unspecified)
[1]
  MIC: > 100 µg/mL
[2]
  MIC: > 100 µg/mL
[3]
  MIC: > 100 µg/mL
[4]
  MIC: > 100 µg/mL
[5]
  MIC: 25 µg/mL (≈ 46.7 µM)
[6]
  MIC: 25 µg/mL (≈ 46.7 µM)
[7]
  MIC: > 100 µg/mL

## C=C1CC(Cn2nc(C)c(=O)n(CC3(c4ccc(-c5ccccc5)cc4)CC(=C)C(=O)O3)c2=O)(c2ccc(-c3ccccc3)cc2)OC1=O (stereo unspecified)
[1]
  MIC: > 100 µg/mL
[2]
  MIC: > 100 µg/mL
[3]
  MIC: > 100 µg/mL
[4]
  MIC: > 100 µg/mL
[5]
  MIC: > 100 µg/mL
[6]
  MIC: 25 µg/mL (≈ 38.4 µM)
[7]
  MIC: > 100 µg/mL

## O=c1cn[nH]c(=O)[nH]1 [6-AZAURACIL]
[1]
  MIC: > 100 µg/mL
[2]
  MIC: > 100 µg/mL
[3]
  MIC: > 100 µg/mL
[4]
  MIC: > 100 µg/mL
[5]
  MIC: > 100 µg/mL
[6]
  MIC: > 100 µg/mL
[7]
  MIC: > 100 µg/mL
